ChEMBL document CHEMBL1122924 (J Med Chem, 1985)

Tests used:
physchem [1] = settings: octanol/0.05 M phosphate buffer, pH 7.4
Description: Compound was evaluated for apparent partition coefficient (log P) between octanol and 0.05 M phosphate buffer solution of pH 7.40

physchem [2] = settings: pH 7.4

| Structure (SMILES) | logD (physchem [1]) | half-life (physchem [2]) |
| --- | --- | --- |
| CC[C@H](C(=O)OCCc1ccccc1)[C@H](CO)Cc1cncn1C | 2.16 | 3.78 h |
| CC[C@H](C(=O)OCc1ccccc1)[C@H](CO)Cc1cncn1C | 1.82 | 0.833 h |
| CCOC(=O)[C@@H](CC)[C@H](CO)Cc1cncn1C | 0.58 | 8.5 h |
| CCCCCCOC(=O)[C@@H](CC)[C@H](CO)Cc1cncn1C | 2.56 | 18.4 h |
| CC[C@H](C(=O)OCc1ccc(C)cc1)[C@H](CO)Cc1cncn1C | 2.31 | 1.28 h |
| CC[C@H](C(=O)OC(C)c1ccccc1)[C@H](CO)Cc1cncn1C (stereo partly drawn) | 2.08 | 7.92 h |

Now from value to compound:

| logD (physchem [1]) | half-life (physchem [2]) | Structure (SMILES) |
| --- | --- | --- |
| 1.58 | 13.7 h | CCCCOC(=O)[C@@H](CC)[C@H](CO)Cc1cncn1C |
| 2.54 | 0.5 h | CC[C@H](C(=O)OCc1ccc(Cl)cc1)[C@H](CO)Cc1cncn1C |
| 2.27 | 2.32 h | CC[C@H](C(=O)OCc1ccccc1C)[C@H](CO)Cc1cncn1C |
